Measured values: US20220401331A1, “PERSONAL CLEANSING COMPOSITIONS, METHODS AND USES” (The Procter & Gamble Company, priority 2021, published 2022)

Experiment: Observations of appearance, structure and phase separation (Centrifuge Test, standing)
Format: physicochemical
Settings: gel structure, phase separation

observations: did not form lamellar phase
Substance: non-ethoxylated sodium tridecyl sulfate [ST0S]
